Patent EP0158075A1, “Immuno stimulating composition” (BAYER AG, priority 1984, dated 1985)

Assays:
Salmonella typhimurium [1] = experiment: Survival of mice after intraperitoneal infection with Salmonella typhimurium (Beispiel B); type: in vivo, Mäuse; conditions: 10 mg/kg per os once daily on 4 consecutive days, starting 1 day after i.p. infection with 7 x 10^5 colony-forming units
Text: Substanzen, die die körpereigene Abwehr (Immunsystem) während einer Infektion stimulieren, sind sowohl für die Human- wie für die Veterinärmedizin von großem Interesse, da viele Infektionen trotz guter chemotherapeutischer Möglichkeiten ohne Unterstützung durch körpereigene Abwehrmechanismen persistieren. Dies kann zum erneuten Auftreten von Symptomen (Rezidiv) nach dem überstehen der Ersterkrankung und damit zu chronisch rezidivierenden Krankheiten führen. Unter den durch Bakterien bedingten Erkrankungen sind es besonders Infektionen mit sogenannten fakultativ intrazellulären Bakterien, die Probleme darstellen. Darunter versteht man Bakterien, die sich nach Aufnahme in die Makrophagen (Phagozytose) weiter vermehren. Es bedarf erst einer weiteren Stimulierung der Makrophagen über das Immunsystem, um diese intrazellulären Bakterien abzutöten. Ein Experimentalmodell für eine solche Erkrankung stellt die Infektion der Maus mit Salmonella typhimurium dar. Nach Inokulation der Mäuse mit diesem humanpathogenen Bakterium kommt es in Abhängigkeit von der Infektionsdosis zu einem subakut bis chronischen Krankheitsverlauf, bei dem die Tiere erst nach 4 bis 7 Tagen abzusterben beginnen. Während dieses Zeitraumes besteht die Möglichkeit, das Immunsystem durch Substanzen zu beeinflussen. Bei den meisten anderen tierexperimentellen Infektionen, kommt es zu einem sehr schnellen Absterben der Tiere innerhalb von 1 bis 2 Tagen. Damit besteht keine Möglichkeit mehr, die Abwehr während der Infektion zu stimulieren. 1-[3-Methyl-4-(4'-trifluormethylthio-phenoxy)-phenyl]-3-methyl-1,3,5-triazin-trion wurde Mäusen an 4 aufeinanderfolgenden Tagen einmal täglich per os in unterschiedlichen Dosen verabfolgt, beginnend 1 Tag nach intraperitonealer Infektion mit 7 x 10^5 Kolonien-bildenden Einheiten von Salmonella typhimurium. Diese Infektionsdosis führt bei unbehandelten Tieren innerhalb von 4 bis 6 Tagen zu einem Absterben von 70 bis 90 % der Tiere. […]

Salmonella typhimurium [2] = experiment: In vitro direct effect on growth of Salmonella typhimurium; type: cell-based

Cc1cc(-n2c(=O)[nH]c(=O)n(C)c2=O)ccc1Oc1ccc(SC(F)(F)F)cc1 [1-[3-Methyl-4-(4'-trifluormethylthio-phenoxy)-phenyl]-3-methyl-1,3,5-triazin-2,4,6-(1H, 3H, 5H)-trion]
Überlebende Mäuse (%) an folgenden Tagen nach Infektion: 6. Tag (Salmonella typhimurium [1]; day 6 after infection): 90%
Überlebende Mäuse (%) an folgenden Tagen nach Infektion: 12. Tag (Salmonella typhimurium [1]; day 12 after infection): 60%
Überlebende Mäuse (%) an folgenden Tagen nach Infektion: 18. Tag (Salmonella typhimurium [1]; day 18 after infection): 60%
direkter Effekt auf die Vermehrung von Salmonella typhimurium (Salmonella typhimurium [2]): keinen direkten Effekt
